Reference: patent US8501238B2, “Anti-infective agents and uses thereof” (priority 2007, dated 2013)
Read-outs that look alike come from different tables or passages of the source.

Experiments:
[1] = target: T1, HCV polymerase 1A (Δ21 NS5B) (Hepatitis C virus genotype 1a, UniProt P27958); test: HCV Polymerase Inhibition Assay (1a); format: biochemical
T1 construct: 20 to 50nM Δ21 NS5B
Protocol: The reaction was initiated by the addition of 20μM CTP, 20μM ATP, 1μM ^3H-UTP (10mCi/umol), 5nM template RNA and 0.1 U/μl RNase inhibitor (RNasin, Promega), and allowed to proceed for 2 to 4h at room temperature. Reaction volume was 50μl. The reaction was terminated by the addition of 1 volume of 4mM spermine in 10mM Tris-Cl pH 8.0, 1mM EDTA. After incubation for at least 15 min at room temperature, the precipitated RNA was captured by filtering through a GF/B filter (Millipore) in a 96 well format. The filter plate was washed three times with 200μl each of 2mM spermine, 10mM Tris-Cl pH 8.0, lmM EDTA, and 2 times with ethanol. After air-drying, 30μl of Microscint 20 scintillation cocktail (Packard) was added to each well, and the retained cpm were determined by scintillation counting. […] Retained cpm were plotted vs. inhibitor concentration and fit to equation 1 using non-linear regression (ref. 1) to obtain the IC50 values: Retained cpm=A[sqrt{(IC50+It−Et)^2+4*IC50*Et}−([…])]
Ref. Morrison, J. F. and S. R. Stone. […] Approaches to the study and analysis of the inhibition of enzymes by slow- and tight-binding inhibitors. Comments Mol. Cell. Biophys.
(§1) The sequence of the template RNA used was: 5′-[…]-3′

[2] = target: T2, HCV polymerase 1B (Δ21 NS5B) (Hepatitis C virus genotype 1b, UniProt P26663); test: biochemical
T2 construct: 20 to 50nM Δ21 NS5B
Protocol: Either two-fold serial dilutions (fractional inhibition assay) or a narrower range of dilutions spanning the IC50 of the inhibitor (tight binding assay) of the inhibitors were incubated with 20mM Tris-Cl pH 7.4, 2 mM MnCl2, 1 mM dithiothreitol, 1 mM ethylene diamine tetraacetic acid (EDTA), 60 to 125μM GTP and 20 to 50nM Δ21 NS5B (HCV Strain 1B (BK, Genbank accession number M58335, or H77, Genbank accession number AF011751)) for 15min at room temperature. The reaction was initiated by the addition of 20μM CTP, 20μM ATP, 1μM ^3H-UTP (10mCi/umol), 5nM template RNA and 0.1 U/μl RNase inhibitor (RNasin, Promega), and allowed to proceed for 2 to 4h at room temperature. Reaction volume was 50μl. The reaction was terminated by the addition of 1 volume of 4mM spermine in 10mM Tris-Cl pH 8.0, 1mM EDTA. After incubation for at least 15 min at room temperature, the precipitated RNA was captured by filtering through a GF/B filter (Millipore) in a 96 well format. The filter plate was washed three times with 200μl each of 2mM spermine, 10mM Tris-Cl pH 8.0, lmM EDTA, and 2 times with ethanol. After air-drying, 30μl of Microscint 20 scintillation cocktail (Packard) was added to each well, and the retained cpm were determined by scintillation counting. […] Retained cpm were plotted vs. inhibitor concentration and fit to equation 1 using non-linear regression (ref. 1) to obtain the IC50 values: Retained cpm=A[sqrt{(IC50+It−Et)^2+4*IC50*Et}−([…])]
Ref. Morrison, J. F. and S. R. Stone. 1985. Approaches to the study and analysis of the inhibition of enzymes by slow- and tight-binding inhibitors. Comments Mol. Cell. Biophys. 2: 347-368.
as §1

[3] = tested on: genotype 1a-H77 subgenomic replicon cell line; test: microbe, parasite or virus in culture; format: cell-based, HCV; conditions: Hepatitis C virus, 72 h, read-out: EC50 1a
[4] = tested on: genotype 1b-Con1 subgenomic replicon cell line; test: microbe, parasite or virus in culture; format: cell-based, HCV; conditions: Hepatitis C virus, 72 h, read-out: EC50 1b

T1 sequence (P27958 2421-2990, stated change not applied): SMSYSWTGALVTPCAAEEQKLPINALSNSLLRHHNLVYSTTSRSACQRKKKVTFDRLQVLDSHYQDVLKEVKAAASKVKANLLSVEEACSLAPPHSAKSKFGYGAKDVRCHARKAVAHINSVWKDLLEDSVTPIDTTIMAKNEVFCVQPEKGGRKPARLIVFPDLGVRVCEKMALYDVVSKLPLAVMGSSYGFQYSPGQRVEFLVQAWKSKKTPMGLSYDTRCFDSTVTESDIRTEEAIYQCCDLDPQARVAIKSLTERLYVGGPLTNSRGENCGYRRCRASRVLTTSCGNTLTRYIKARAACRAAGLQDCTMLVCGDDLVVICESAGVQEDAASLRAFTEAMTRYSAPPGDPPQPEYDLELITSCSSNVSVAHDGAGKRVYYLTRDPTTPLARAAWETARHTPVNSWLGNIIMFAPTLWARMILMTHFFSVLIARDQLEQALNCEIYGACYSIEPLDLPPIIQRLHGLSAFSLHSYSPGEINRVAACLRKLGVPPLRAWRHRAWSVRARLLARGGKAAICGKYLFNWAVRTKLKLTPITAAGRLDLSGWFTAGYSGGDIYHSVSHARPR
T2 sequence (P26663 2420-2989, stated change not applied): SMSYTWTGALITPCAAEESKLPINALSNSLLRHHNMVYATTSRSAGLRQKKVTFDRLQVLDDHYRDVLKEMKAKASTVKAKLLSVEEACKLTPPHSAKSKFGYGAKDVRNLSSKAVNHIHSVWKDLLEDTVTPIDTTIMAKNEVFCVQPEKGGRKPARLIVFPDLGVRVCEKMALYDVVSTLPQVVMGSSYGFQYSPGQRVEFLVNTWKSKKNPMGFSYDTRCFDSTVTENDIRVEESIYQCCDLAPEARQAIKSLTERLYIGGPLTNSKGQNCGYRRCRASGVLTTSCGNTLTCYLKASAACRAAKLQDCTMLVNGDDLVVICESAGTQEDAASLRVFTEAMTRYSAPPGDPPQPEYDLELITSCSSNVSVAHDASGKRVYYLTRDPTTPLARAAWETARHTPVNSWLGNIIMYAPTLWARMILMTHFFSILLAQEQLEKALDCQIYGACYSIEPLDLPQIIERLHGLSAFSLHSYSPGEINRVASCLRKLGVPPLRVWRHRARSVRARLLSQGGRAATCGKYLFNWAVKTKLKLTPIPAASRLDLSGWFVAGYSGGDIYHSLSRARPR

| Molecule | IC50 [1] [µM] | IC50 [2] [µM] | EC50 [3] [µM] | EC50 [4] [µM] | IC50 ([1]; HCV polymerase 1a, read-out: IC50 1a) [µM] | IC50 ([2]; HCV polymerase 1b, read-out: IC50 1b) [µM] |
| --- | --- | --- | --- | --- | --- | --- |
| COc1c(-c2nc3cc(NS(C)(=O)=O)ccc3[nH]2)cc(N2CCC(=O)NC2=O)cc1C(C)(C)C [IA-L0-2.1, N-(2-(3-tert-butyl-5-(2,4-dioxotetrahydropyrimidin-1(2H)-yl)-2-methoxyphenyl)-1H-benzo[d]imidazol-5-yl)methanesulfonamide] | 0.1 to 1 | 0.1 to 1 | > 1 | > 1 |  |  |
| COc1c(-c2nc3ccc(NS(C)(=O)=O)cc3s2)cc(N2CCC(=O)NC2=O)cc1C(C)(C)C [IA-L0-2.2, N-(2-(3-tert-butyl-5-(2,4-dioxotetrahydropyrimidin-1(2H)-yl)-2-methoxyphenyl)benzo[d]thiazol-6-yl)methanesulfonamide] | 0.01 to 0.1 | 0.01 to 0.1 | 0.1 to 1 | 0.01 to 0.1 |  |  |
| COc1c(-c2nc3ccccc3s2)cc(N2CCC(=O)NC2=O)cc1C(C)(C)C [IA-L0-2.3, 1-(3-(benzo[d]thiazol-2-yl)-5-tert-butyl-4-methoxyphenyl)dihydro pyrimidine-2,4(1H,3H)-dione] | 0.1 to 1 | 0.1 to 1 | 0.1 to 1 | 0.1 to 1 |  |  |
| COc1c(-c2nc3cc(NS(C)(=O)=O)ccc3s2)cc(N2CCC(=O)NC2=O)cc1C(C)(C)C [IA-L0-2.4, N-(2-(3-tert-butyl-5-(2,4-dioxotetrahydropyrimidin-1(2H)-yl)-2-methoxyphenyl)benzo[d]thiazol-5-yl)methanesulfonamide] | 0.01 to 0.1 | 0.01 to 0.1 | > 1 | 0.1 to 1 |  |  |
| COc1c(-c2nc3ccc(NS(C)(=O)=O)cc3o2)cc(N2CCC(=O)NC2=O)cc1C(C)(C)C [IA-L0-2.5, N-(2-(3-tert-butyl-5-(2,4-dioxotetrahydropyrimidin-1(2H)-yl)-2-methoxyphenyl)benzo[d]oxazol-6-yl)methanesulfonamide] | 0.1 to 1 | 0.1 to 1 | > 1 | > 1 |  |  |
| COc1c(-c2nc3ccc([N+](=O)[O-])cc3o2)cc(N2CCC(=O)NC2=O)cc1C(C)(C)C [IA-L0-2.6, 1-(3-tert-butyl-4-methoxy-5-(6-nitrobenzo[d]oxazol-2-yl)phenyl) dihydropyrimidine-2,4(1H,3H)-dione] | 0.1 to 1 | 0.1 to 1 | > 1 | > 1 |  |  |
| COc1c(-c2nc3cc([N+](=O)[O-])ccc3o2)cc(N2CCC(=O)NC2=O)cc1C(C)(C)C [IA-L0-2.7, 1-(3-tert-butyl-4-methoxy-5-(5-nitrobenzo[d]oxazol-2-yl)phenyl) dihydropyrimidine-2,4(1H,3H)-dione] | 0.1 to 1 | 0.1 to 1 | > 1 | 0.1 to 1 |  |  |
| COc1c(-c2nc3cc(NS(C)(=O)=O)ccc3o2)cc(N2CCC(=O)NC2=O)cc1C(C)(C)C [IA-L0-2.8, N-(2-(3-tert-butyl-5-(2,4-dioxotetrahydropyrimidin-1(2H)-yl)-2-methoxyphenyl)benzo[d]oxazol-5-yl)methanesulfonamide] | 0.01 to 0.1 | 0.01 to 0.1 | 0.1 to 1 | 0.01 to 0.1 |  |  |
| COc1c(-c2ccc3cc(NS(C)(=O)=O)ccc3c2)cc(N2CCC(=O)NC2=O)cc1C(C)(C)C [IA-L0-2.9, N-(6-(3-tert-butyl-5-(2,4-dioxotetrahydropyrimidin-1(2H)-yl)-2-methoxyphenyl)naphthalen-2-yl)methanesulfonamide] | < 0.01 | < 0.01 | < 0.01 | < 0.01 |  |  |
| COc1c(-c2ccc3ccccc3c2)cc(-n2ccc(=O)[nH]c2=O)cc1C(C)(C)C [IB-L0-2.1, 1-(3-tert-butyl-4-methoxy-5-(naphthalen-2-yl)phenyl)pyrimidine-2,4(1H,3H)-dione] | 0.1 to 1 | 0.1 to 1 | > 1 | 0.1 to 1 |  |  |
| COc1ccc2cc(-c3cc(-n4ccc(=O)[nH]c4=O)cc(C(C)(C)C)c3OC)ccc2c1 [IB-L0-2.2, 1-(3-tert-butyl-4-methoxy-5-(6-methoxynaphthalen-2-yl)phenyl)pyrimidine-2,4(1H,3H)-dione] | 0.1 to 1 | 0.1 to 1 | > 1 | > 1 |  |  |
| COc1c(-c2ccc3cc(NS(C)(=O)=O)ccc3c2)cc(-n2ccc(=O)[nH]c2=O)cc1C(C)(C)C [IB-L0-2.3, N-(6-(3-tert-butyl-5-(2,4-dioxo-3,4-dihydropyrimidin-1(2H)-yl)-2-methoxyphenyl)naphthalen-2-yl)methanesulfonamide] | < 0.01 | < 0.01 | < 0.01 | < 0.01 |  |  |
| COc1c(-c2ccc3c(c2)CC/C3=N\NS(C)(=O)=O)cc(-n2ccc(=O)[nH]c2=O)cc1C(C)(C)C [IB-L0-2.4, (E)-N′-(5-(3-tert-butyl-5-(2,4-dioxo-3,4-dihydropyrimidin-1(2H)-yl)-2-methoxyphenyl)-2,3-dihydro-1H-inden-1-ylidene)methanesulfonohydrazide] | < 0.01 | < 0.01 |  | < 0.01 |  |  |
| COc1c(-c2ccc3nc(NS(C)(=O)=O)ccc3c2)cc(-n2ccc(=O)[nH]c2=O)cc1C(C)(C)C [IB-L0-2.5, N-(6-(3-tert-butyl-5-(2,4-dioxo-3,4-dihydropyrimidin-1(2H)-yl)-2-methoxyphenyl)quinolin-2-yl)methanesulfonamide] | 0.01 to 0.1 | 0.01 to 0.1 | 0.01 to 0.1 | < 0.01 |  |  |
| COc1c(-c2nc3cc(NS(C)(=O)=O)ccc3o2)cc(-n2ccc(=O)[nH]c2=O)cc1C(C)(C)C [IB-L0-2.6, N-(2-(3-tert-butyl-5-(2,4-dioxo-3,4-dihydropyrimidin-1(2H)-yl)-2-methoxyphenyl)benzo[d]oxazol-5-yl)methanesulfonamide] | 0.01 to 0.1 | 0.01 to 0.1 | 0.1 to 1 | 0.01 to 0.1 |  |  |
| CC(C)(C)c1cc(-c2ccc3cc(NS(C)(=O)=O)ccc3c2)cc(-n2ccc(=O)[nH]c2=O)c1 [IB-L0-2.8, N-(6-(3-tert-butyl-5-(2,4-dioxo-3,4-dihydropyrimidin-1(2H)-yl)phenyl)naphthalen-2-yl)methanesulfonamide] | 0.01 to 0.1 | 0.01 to 0.1 |  | 0.01 to 0.1 |  |  |
| COc1c(-c2ccc3c(c2)CC[C@]3(F)CNS(C)(=O)=O)cc(-n2ccc(=O)[nH]c2=O)cc1C(C)(C)C [IB-L0-2.10, (R)-N-((5-(3-tert-butyl-5-(2,4-dioxo-3,4-dihydropyrimidin-1 (2H)-yl)-2-methoxyphenyl)-1-fluoro-2,3-dihydro-1H-inden-1-yl)methyl)methanesulfonamide] | < 0.01 | 0.01 to 0.1 | < 0.01 | < 0.01 |  |  |
| COc1c(N2CCc3cc(NS(C)(=O)=O)ccc3C2)cc(-n2ccc(=O)[nH]c2=O)cc1C(C)(C)C [IB-L0-2.19, N-(2-(3-tert-butyl-5-(2,4-dioxo-3,4-dihydropyrimidin-1(2H)-yl)-2-methoxyphenyl)-1,2,3,4-tetrahydroisoquinolin-6-yl)methanesulfonamide] | < 0.01 | 0.01 to 0.1 | 0.01 to 0.1 | 0.01 to 0.1 |  |  |
| COc1c(-c2ccc3nc(NC(C)=O)sc3c2)cc(-n2ccc(=O)[nH]c2=O)cc1C(C)(C)C [IB-L0-2.49, N-(6-(3-tert-butyl-5-(2,4-dioxo-3,4-dihydropyrimidin-1(2H)-yl)-2-methoxyphenyl)benzo[d]thiazol-2-yl)acetamide] | > 1 | > 1 |  |  |  |  |
| N,N′-(6,6′-(5-(2,4-dioxo-3,4-dihydropyrimidin-1(2H)-yl)-2-methoxy-1,3-phenylene) bis(naphthalene-6,2-diyl))dimethanesulfonamide [IB-L0-2.76] |  |  |  |  | 0.1 to 1 | > 1 |
